# Data from patent publication US20040198663A1, “Method of treating cardiac ischemia by using erythropoietin” (priority 2003, published 2004).
# “Also recorded” adds a separate entry of the source.
# Tested on: hearts from normoxic rabbits
# Test: Mechanism studies: inhibitors/blockers perfused alone, then with erythropoietin, before global ischemia
# Set-up: species or system New Zealand White rabbit
# Conditions: for effect of protein kinase inhibitor on the cardioprotective effect of erythropoietin: inhibitor 15 min alone, then 15 min with erythropoietin 1.0 U/ml prior to ischemia
# Description: Resistance to myocardial ischemia. Hearts from infant rabbits were perfused with bicarbonate buffer, and biventricular function was monitored continuously throughout each experiment as described in Rafiee et al., Circulation 106:239-45 (2002). For concentration response studies, hearts were then perfused with erythropoietin (0.5-10.0 U/ml) for 15 minutes prior to 30 minutes ischemia and 35 minutes reperfusion. For mechanism studies with protein kinase inhibitors, potassium channel blockers or nitric oxide synthase inhibitors, hearts were perfused with drugs for 15 minutes alone followed by 15 minutes in combination with erythropoietin prior to ischemia. Hearts perfused with protein kinase inhibitors or potassium channel blockers alone in the absence of erythropoietin for 30 minutes prior to ischemia served as untreated controls for these studies. Recovery of post-ischemic left and right ventricular developed pressure was expressed as a percentage of its pre-drug, pre-ischemic value.
# Hearts from normoxic rabbits were perfused with protein kinase inhibitors alone for 15 minutes and then combined with erythropoietin for a further 15 minute period prior to ischemia.
# Hearts were perfused with KATP channel blockers alone for 15 minutes and then in combination with erythropoietin (1.0 U/ml) for another 15-minute period prior to ischemia.
# Hearts were perfused with Paxilline (1 μM), a blocker of the KCa channel, alone for 15 minutes and then in combination with erythropoietin (1.0 U/ml) for another 15-minute period prior to ischemia.
# Hearts from normoxic rabbits were perfused with nitric oxide synthase inhibitors combined with erythropoietin (1.0 U/ml) for 15 minutes prior to ischemia.
structure (smiles),measurement,setting,value
CCCCCC(O)CCCC(=O)O (centres unmarked) [5-hydroxydecanoate],effect on the cardioprotective effect of erythropoietin,"5-hydroxydecanoate 300 μM, 15 min alone then 15 min with erythropoietin 1.0 U/ml",partially
same,effect on the cardioprotective effect of erythropoietin,"5-hydroxydecanoate 300 μM, 15 min alone then 15 min with erythropoietin 1.0 U/ml, listed as 5-HD",abolished; also recorded: only partially prevented
COc1ccc(Cl)cc1C(=O)NCCc1ccc(S(=O)(=O)NC(=O)NC2CCCCC2)cc1 [Glibenclamide],effect on the cardioprotective effect of erythropoietin,"glibenclamide 3 μM, 15 min alone then 15 min with erythropoietin 1.0 U/ml",completely abolished
same,effect on the cardioprotective effect of erythropoietin,"glibenclamide 3 μM, 15 min alone then 15 min with erythropoietin 1.0 U/ml, listed as glibenclamide",abolished; also recorded: completely prevented
CNC(=S)NS(=O)(=O)c1cc(CCNC(=O)c2cc(Cl)ccc2OC)ccc1OC [HMR 1098],effect on the cardioprotective effect of erythropoietin,"HMR 1098 30 μM, 15 min alone then 15 min with erythropoietin 1.0 U/ml",abolished; also recorded: completely prevented; also recorded: completely blocked
COC(=O)[C@@H](N)CCCNC(=N)N[N+](=O)[O-] [L-NAME],effect on the cardioprotective effect of erythropoietin,L-NAME 200 μM combined with erythropoietin 1.0 U/ml for 15 minutes,did not block
CNC(=N)NCCC[C@H](N)C(=O)O [L-NMA],effect on the cardioprotective effect of erythropoietin,L-NMA 100 μM combined with erythropoietin 1.0 U/ml for 15 minutes,did not block
COc1cccc(-c2cc(=O)c3ccccc3o2)c1N [PD98059],effect of protein kinase inhibitor on the cardioprotective effect of erythropoietin,,abolished
CC(C)(O)[C@H]1O[C@H]2CC[C@@]3(C)[C@@](O)(CC[C@H]4Cc5c([nH]c6ccccc56)[C@@]43C)C2=CC1=O [Paxilline],effect on untreated hearts,"Paxilline 1 μM alone, no erythropoietin",no effect
C[S+]([O-])c1ccc(-c2nc(-c3ccncc3)c(-c3ccc(F)cc3)[nH]2)cc1 (centres unmarked) [SB203580],effect of protein kinase inhibitor on the cardioprotective effect of erythropoietin,,abolished
COc1ccc2c(c[n+](C)c3c4cc5c(cc4ccc23)OCO5)c1OC [chelerythrine],effect of protein kinase inhibitor on the cardioprotective effect of erythropoietin,,abolished
